Reference: ChEMBL document CHEMBL4602641, “Discovery of novel pyrrolo[2,3-b]pyridine derivatives bearing 4-oxoquinoline moiety as potential antitumor inhibitor” (Bioorg Med Chem Lett, 2020)
The source made the active and inactive calls. The calls are words filed in the database; no cut-off is given here.

Experiments:
[1] = system: A549; test: Antiproliferative activity against human A549 cells assessed as cell growth inhibition measured after 72 hrs by MTT assay; conditions: A549, 72 h
[2] = system: HepG2; test: Antiproliferative activity against human HepG2 cells assessed as cell growth inhibition measured after 72 hrs by MTT assay; conditions: HepG2, 72 h
[3] = system: MCF7; test: Antiproliferative activity against human MCF7 cells assessed as cell growth inhibition measured after 72 hrs by MTT assay; conditions: MCF7, 72 h
[4] = biological target: Hepatocyte growth factor receptor (Homo sapiens, UniProt P08581); test: Inhibition of c-Met (unknown origin) by caliper mobility shift assay
[5] = system: HepG2; test: Induction of apoptosis in human HepG2 cells assessed as abnormal cell morphology at 0.24 uM by acridine orange staining based fluorescence microscopy; assay type: functional
[6] = system: HepG2; test: Induction of apoptosis in human HepG2 cells assessed as decomposed nucleus at 0.24 uM by acridine orange staining based fluorescence microscopy; assay type: functional, cell-based
[7] = system: HepG2; test: Induction of apoptosis in human HepG2 cells assessed as dispersed nucleus at 0.24 uM by acridine orange staining based fluorescence microscopy; assay type: functional, cell-based
[8] = system: HepG2; test: Induction of apoptosis in human HepG2 cells assessed as concentrated chromatin at 0.24 uM by acridine orange staining based fluorescence microscopy; assay type: functional, cell-based
[9] = biological target: Mast/stem cell growth factor receptor Kit (Homo sapiens, UniProt P10721); test: Inhibition of c-Kit (unknown origin) by enzymatic assay
[10] = biological target: Vascular endothelial growth factor receptor 2 (Homo sapiens, UniProt P35968); test: Inhibition of VEGFR2 (unknown origin) by enzymatic assay
[11] = biological target: Platelet-derived growth factor receptor beta (Homo sapiens, UniProt P09619); test: Inhibition of PDGFRbeta (unknown origin) by enzymatic assay
[12] = biological target: ALK tyrosine kinase receptor (Homo sapiens, UniProt Q9UM73); test: Inhibition of ALK (unknown origin) by enzymatic assay
[13] = biological target: Macrophage-stimulating protein receptor (Homo sapiens, UniProt Q04912); test: Inhibition of RON (unknown origin) by enzymatic assay
[14] = system: HepG2; test: Induction of apoptosis in human HepG2 cells assessed as abnormal cell morphology at 0.24 uM by inverted microscopy microscopy; assay type: functional, cell-based
[15] = system: A549; test: Antiproliferative activity against human A549 cells assessed as cell growth inhibition measured after 72 hrs by MTT assay

Sequence of Hepatocyte growth factor receptor (P08581 whole entry): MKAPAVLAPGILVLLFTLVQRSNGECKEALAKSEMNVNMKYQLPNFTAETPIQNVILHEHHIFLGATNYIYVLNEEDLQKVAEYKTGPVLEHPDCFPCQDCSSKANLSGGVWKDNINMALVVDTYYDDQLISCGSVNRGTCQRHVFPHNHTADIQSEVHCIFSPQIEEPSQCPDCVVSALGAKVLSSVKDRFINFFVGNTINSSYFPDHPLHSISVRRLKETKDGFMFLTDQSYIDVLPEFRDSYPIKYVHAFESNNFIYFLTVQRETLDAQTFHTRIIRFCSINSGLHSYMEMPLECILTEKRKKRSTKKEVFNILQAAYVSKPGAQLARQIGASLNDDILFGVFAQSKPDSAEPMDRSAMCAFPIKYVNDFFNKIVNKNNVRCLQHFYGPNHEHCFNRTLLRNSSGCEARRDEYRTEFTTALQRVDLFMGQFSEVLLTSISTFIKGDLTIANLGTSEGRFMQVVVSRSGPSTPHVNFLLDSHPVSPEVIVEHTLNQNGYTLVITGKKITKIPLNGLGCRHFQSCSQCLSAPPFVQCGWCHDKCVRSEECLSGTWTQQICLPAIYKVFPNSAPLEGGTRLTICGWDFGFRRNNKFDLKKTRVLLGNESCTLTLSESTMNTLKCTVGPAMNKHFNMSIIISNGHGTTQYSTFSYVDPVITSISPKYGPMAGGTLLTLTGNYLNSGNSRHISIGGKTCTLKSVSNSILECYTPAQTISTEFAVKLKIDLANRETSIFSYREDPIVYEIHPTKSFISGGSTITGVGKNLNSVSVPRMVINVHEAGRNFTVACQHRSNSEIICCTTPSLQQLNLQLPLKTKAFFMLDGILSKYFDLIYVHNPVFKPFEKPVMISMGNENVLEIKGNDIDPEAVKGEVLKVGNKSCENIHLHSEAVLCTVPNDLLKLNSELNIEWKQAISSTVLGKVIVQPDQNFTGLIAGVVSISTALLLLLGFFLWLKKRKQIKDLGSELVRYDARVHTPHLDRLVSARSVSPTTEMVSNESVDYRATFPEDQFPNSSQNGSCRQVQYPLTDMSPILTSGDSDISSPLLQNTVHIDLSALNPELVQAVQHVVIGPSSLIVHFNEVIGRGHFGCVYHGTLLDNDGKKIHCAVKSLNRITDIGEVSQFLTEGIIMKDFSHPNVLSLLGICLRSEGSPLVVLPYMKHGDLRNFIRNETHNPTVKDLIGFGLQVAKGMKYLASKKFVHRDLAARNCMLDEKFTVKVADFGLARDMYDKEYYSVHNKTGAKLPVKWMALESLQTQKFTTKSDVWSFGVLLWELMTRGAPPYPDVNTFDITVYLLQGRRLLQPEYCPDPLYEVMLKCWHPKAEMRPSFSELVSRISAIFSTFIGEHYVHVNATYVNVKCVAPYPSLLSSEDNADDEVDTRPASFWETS
Sequence of ALK tyrosine kinase receptor (Q9UM73 whole entry): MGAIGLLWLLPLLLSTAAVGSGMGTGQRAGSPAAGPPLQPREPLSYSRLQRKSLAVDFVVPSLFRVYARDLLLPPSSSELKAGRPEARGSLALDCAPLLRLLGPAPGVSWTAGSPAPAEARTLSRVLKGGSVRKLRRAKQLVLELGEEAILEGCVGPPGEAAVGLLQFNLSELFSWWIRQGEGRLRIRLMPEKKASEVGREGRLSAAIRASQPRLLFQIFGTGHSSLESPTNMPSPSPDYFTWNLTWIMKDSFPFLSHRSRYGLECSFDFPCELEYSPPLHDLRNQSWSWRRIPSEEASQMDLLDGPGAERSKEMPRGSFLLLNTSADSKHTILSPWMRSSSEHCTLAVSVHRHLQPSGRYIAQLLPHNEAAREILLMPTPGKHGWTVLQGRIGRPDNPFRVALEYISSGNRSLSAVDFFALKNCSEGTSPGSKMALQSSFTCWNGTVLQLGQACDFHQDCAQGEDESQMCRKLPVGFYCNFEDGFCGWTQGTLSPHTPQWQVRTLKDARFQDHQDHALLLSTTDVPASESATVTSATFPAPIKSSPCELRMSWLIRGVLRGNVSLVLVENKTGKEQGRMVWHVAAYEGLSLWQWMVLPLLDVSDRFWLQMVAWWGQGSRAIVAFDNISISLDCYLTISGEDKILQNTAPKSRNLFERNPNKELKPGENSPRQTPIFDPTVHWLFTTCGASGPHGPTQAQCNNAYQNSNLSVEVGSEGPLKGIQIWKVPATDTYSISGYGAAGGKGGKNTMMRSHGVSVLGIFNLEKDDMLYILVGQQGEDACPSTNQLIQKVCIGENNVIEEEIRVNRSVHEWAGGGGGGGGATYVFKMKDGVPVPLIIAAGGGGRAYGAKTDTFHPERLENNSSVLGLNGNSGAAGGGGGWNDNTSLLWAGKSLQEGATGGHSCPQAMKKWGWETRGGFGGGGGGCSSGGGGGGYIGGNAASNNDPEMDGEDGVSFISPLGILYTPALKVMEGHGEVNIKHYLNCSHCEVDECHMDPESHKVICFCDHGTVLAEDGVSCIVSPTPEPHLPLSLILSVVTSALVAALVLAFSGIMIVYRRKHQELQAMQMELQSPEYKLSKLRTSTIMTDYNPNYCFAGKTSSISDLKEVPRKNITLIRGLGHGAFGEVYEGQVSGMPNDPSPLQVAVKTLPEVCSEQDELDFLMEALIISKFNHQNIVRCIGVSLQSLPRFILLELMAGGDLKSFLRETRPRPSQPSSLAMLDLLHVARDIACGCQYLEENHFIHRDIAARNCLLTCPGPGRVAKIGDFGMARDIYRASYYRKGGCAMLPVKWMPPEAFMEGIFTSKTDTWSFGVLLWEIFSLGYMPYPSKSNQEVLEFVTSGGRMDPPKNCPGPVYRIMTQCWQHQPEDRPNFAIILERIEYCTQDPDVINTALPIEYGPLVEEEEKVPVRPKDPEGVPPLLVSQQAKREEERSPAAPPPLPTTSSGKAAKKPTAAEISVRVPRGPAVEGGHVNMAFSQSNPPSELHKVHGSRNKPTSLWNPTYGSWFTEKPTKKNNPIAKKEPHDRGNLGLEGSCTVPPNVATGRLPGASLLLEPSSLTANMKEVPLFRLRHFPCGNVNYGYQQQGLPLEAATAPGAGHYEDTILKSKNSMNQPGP
Sequence of Macrophage-stimulating protein receptor (Q04912 25-304 limits assumed): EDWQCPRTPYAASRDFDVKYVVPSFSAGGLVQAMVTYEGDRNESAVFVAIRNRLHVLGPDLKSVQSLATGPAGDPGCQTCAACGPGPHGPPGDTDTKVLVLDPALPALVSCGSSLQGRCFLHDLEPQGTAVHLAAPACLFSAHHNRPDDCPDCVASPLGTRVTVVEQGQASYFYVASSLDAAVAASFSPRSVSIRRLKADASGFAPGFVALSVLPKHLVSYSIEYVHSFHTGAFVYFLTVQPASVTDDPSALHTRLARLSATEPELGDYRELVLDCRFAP
Sequence of Macrophage-stimulating protein receptor (Q04912 310-1400 limits assumed): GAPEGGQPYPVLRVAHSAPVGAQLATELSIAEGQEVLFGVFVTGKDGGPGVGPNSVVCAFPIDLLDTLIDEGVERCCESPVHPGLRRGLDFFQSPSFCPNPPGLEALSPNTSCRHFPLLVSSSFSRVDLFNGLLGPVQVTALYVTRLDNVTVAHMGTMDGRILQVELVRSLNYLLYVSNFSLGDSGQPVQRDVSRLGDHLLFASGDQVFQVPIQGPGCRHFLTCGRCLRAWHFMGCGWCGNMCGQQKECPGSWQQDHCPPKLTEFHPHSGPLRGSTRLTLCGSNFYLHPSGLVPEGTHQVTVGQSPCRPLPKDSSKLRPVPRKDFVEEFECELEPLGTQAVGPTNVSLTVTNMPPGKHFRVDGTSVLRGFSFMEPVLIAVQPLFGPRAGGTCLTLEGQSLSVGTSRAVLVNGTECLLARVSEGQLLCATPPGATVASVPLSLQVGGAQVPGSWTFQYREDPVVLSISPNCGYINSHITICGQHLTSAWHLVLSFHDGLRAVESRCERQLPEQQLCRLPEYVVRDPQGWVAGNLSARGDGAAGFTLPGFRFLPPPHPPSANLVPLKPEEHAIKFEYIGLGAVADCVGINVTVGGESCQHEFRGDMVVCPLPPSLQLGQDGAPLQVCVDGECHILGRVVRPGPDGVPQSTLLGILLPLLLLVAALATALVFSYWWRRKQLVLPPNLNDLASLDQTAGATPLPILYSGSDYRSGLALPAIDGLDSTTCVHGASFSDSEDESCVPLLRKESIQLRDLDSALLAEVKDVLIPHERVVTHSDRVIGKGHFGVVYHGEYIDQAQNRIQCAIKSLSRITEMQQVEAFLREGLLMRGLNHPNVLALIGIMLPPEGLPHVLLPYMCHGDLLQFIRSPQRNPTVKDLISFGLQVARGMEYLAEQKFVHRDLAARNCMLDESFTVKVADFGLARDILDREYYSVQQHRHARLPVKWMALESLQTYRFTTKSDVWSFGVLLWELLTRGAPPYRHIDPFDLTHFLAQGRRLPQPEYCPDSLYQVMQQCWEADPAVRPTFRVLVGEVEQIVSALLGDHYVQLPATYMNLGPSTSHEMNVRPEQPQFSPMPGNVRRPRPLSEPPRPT

Cn1ccc2c(Oc3ccc(NC(=O)c4cn(-c5ccc(F)c(Cl)c5)c5ccccc5c4=O)cc3F)ccnc21
IC50 [1]: 1.21 µM

O=C(Nc1ccc(Oc2ccnc3[nH]ccc23)cc1)c1cn(-c2ccc(Br)cc2F)c2ccccc2c1=O
IC50 [1]: 1.33 µM
IC50 [2]: 0.79 µM

O=C(Nc1ccc(Oc2ccnc3[nH]ccc23)c(F)c1)c1cn(-c2ccc(F)c(Cl)c2)c2ccccc2c1=O
IC50 [1]: 2.15 µM
IC50 [2]: 3.39 µM

O=C(Nc1ccc(Oc2ccnc3[nH]ccc23)cc1)c1cn(-c2ccc(C(F)(F)F)cc2Cl)c2ccccc2c1=O
IC50 [1]: 2.35 µM
IC50 [3]: 3.57 µM

Cn1ccc2c(Oc3ccc(NC(=O)c4cn(-c5ccccc5)c5ccccc5c4=O)cc3F)ccnc21
IC50 [1]: 1.72 µM
IC50 [2]: 2.17 µM
IC50 [3]: 2.79 µM

O=C(Nc1ccc(Oc2ccnc3[nH]ccc23)c(F)c1)c1cn(-c2ccc(Br)cc2F)c2ccccc2c1=O
IC50 [1]: 1.15 µM
IC50 [2]: 2.2 µM
IC50 [3]: 1.39 µM

Cn1ccc2c(Oc3ccc(NC(=O)c4cn(-c5ccc(Br)cc5)c5ccccc5c4=O)cc3F)ccnc21
IC50 [1]: 1.39 µM
IC50 [2]: 1.26 µM
IC50 [3]: 1.83 µM

O=C(Nc1ccc(Oc2ccnc3[nH]ccc23)cc1)c1cn(-c2ccccc2)c2ccccc2c1=O
IC50 [1]: 1.03 µM
IC50 [2]: 2.25 µM
IC50 [3]: 3.56 µM

O=C(Nc1ccc(Oc2ccnc3[nH]ccc23)c(F)c1)c1cn(-c2ccc(Cl)cc2)c2ccccc2c1=O
IC50 [1]: 0.32 µM
IC50 [2]: 0.38 µM
IC50 [4]: 0.041 µM

COc1ccc(-n2cc(C(=O)Nc3ccc(Oc4ccnc5c4ccn5C)c(F)c3)c(=O)c3ccccc32)cc1
IC50 [1]: 3.21 µM
IC50 [2]: 3.75 µM
IC50 [3]: 6.72 µM

COc1ccc(-n2cc(C(=O)Nc3ccc(Oc4ccnc5[nH]ccc45)cc3)c(=O)c3ccccc32)cc1
IC50 [1]: 4.98 µM
IC50 [2]: 5.95 µM
IC50 [3]: 4.65 µM

O=C(Nc1ccc(Oc2ccnc3[nH]ccc23)cc1)c1cn(-c2ccc(Br)cc2)c2ccccc2c1=O
IC50 [1]: 0.45 µM
IC50 [2]: 0.22 µM
IC50 [3]: 0.61 µM
IC50 [4]: 0.01 µM

O=C(Nc1ccc(Oc2ccnc3[nH]ccc23)cc1)c1cn(-c2ccc(F)c(Cl)c2)c2ccccc2c1=O
IC50 [1]: 4.81 µM
IC50 [2]: 1.12 µM
IC50 [3]: 1.51 µM

COc1ccc(-n2cc(C(=O)Nc3ccc(Oc4ccnc5[nH]ccc45)c(F)c3)c(=O)c3ccccc32)cc1
IC50 [1]: 4.15 µM
IC50 [2]: 6.53 µM
IC50 [3]: 6.62 µM

O=C(Nc1ccc(Oc2ccnc3[nH]ccc23)cc1)c1cn(-c2ccc(Cl)cc2)c2ccccc2c1=O
IC50 [1]: 0.65 µM
IC50 [2]: 0.25 µM
IC50 [3]: 1.59 µM

Cn1ccc2c(Oc3ccc(NC(=O)c4cn(-c5ccc(Cl)cc5)c5ccccc5c4=O)cc3F)ccnc21
IC50 [1]: 0.25 µM
IC50 [2]: 0.29 µM
IC50 [3]: 2.12 µM
IC50 [4]: 0.087 µM

Cn1ccc2c(Oc3ccc(NC(=O)c4cn(-c5ccc(F)cc5)c5ccccc5c4=O)cc3F)ccnc21
IC50 [1]: 1.46 µM
IC50 [2]: 2.01 µM

COc1cc2c(Oc3ccc(NC(=O)C4(C(=O)Nc5ccc(F)cc5)CC4)cc3F)ccnc2cc1OCCCN1CCOCC1 [FORETINIB]
IC50 [1]: 0.48 µM
IC50 [2]: 0.35 µM
IC50 [3]: 0.73 µM

O=C(Nc1ccc(Oc2ccnc3[nH]ccc23)c(F)c1)c1cn(-c2ccccc2)c2ccccc2c1=O
IC50 [1]: 0.42 µM
IC50 [2]: 0.76 µM
IC50 [3]: 0.43 µM

Cn1ccc2c(Oc3ccc(NC(=O)c4cn(-c5ccc(C(F)(F)F)cc5Cl)c5ccccc5c4=O)cc3F)ccnc21
IC50 [1]: 2.05 µM
IC50 [3]: 0.19 µM

O=C(Nc1ccc(Oc2ccnc3[nH]ccc23)c(F)c1)c1cn(-c2ccc(Br)cc2)c2ccccc2c1=O
IC50 [1]: 0.95 µM
IC50 [2]: 0.71 µM
IC50 [3]: 0.65 µM

O=C(Nc1ccc(Oc2ccnc3[nH]ccc23)c(F)c1)c1cn(-c2ccc(F)cc2)c2ccccc2c1=O
IC50 [1]: 0.29 µM
IC50 [2]: 0.27 µM
IC50 [3]: 0.52 µM
Activity [5]: Active
Activity [6]: Active
Activity [7]: Active
Activity [8]: Active
IC50 [9]: 1.31 µM
IC50 [10]: > 10 µM
IC50 [11]: > 10 µM
IC50 [12]: > 10 µM
IC50 [13]: > 10 µM
Activity [14]: Active
inhibition [15]: Dose-dependent effect

Cn1ccc2c(Oc3ccc(NC(=O)c4cn(-c5ccc(Br)cc5F)c5ccccc5c4=O)cc3F)ccnc21
IC50 [1]: 1.52 µM
IC50 [2]: 2.51 µM
IC50 [3]: 0.42 µM

O=C(Nc1ccc(Oc2ccnc3[nH]ccc23)cc1)c1cn(-c2ccc(F)cc2)c2ccccc2c1=O
IC50 [1]: 0.39 µM
IC50 [2]: 0.45 µM
IC50 [3]: 0.72 µM

O=C(Nc1ccc(Oc2ccnc3[nH]ccc23)c(F)c1)c1cn(-c2ccc(C(F)(F)F)cc2Cl)c2ccccc2c1=O
IC50 [1]: 1.62 µM
IC50 [2]: 1.84 µM
IC50 [3]: 1.12 µM
